In patent US20140329903A1, “TREATMENT OF NEURODEGENERATIVE DISEASES” (ACADIA PHARMACEUTICALS INC., priority 2011, published 2014):
pEC50: −log10 of the molar value. Entries after “also recorded” stand apart in the source; their conditions may differ. Read-outs that look alike come from different tables or passages of the source.

Tests used:
[1] = system: RXRE & Nurr1; assay: Reporter gene transcription assay pRXRE & Nurr1; format: cell-based
Description: (§1) We have enabled assays to detect ligand-induced gene transcription (reporter gene assays) in order to confirm results obtained in BRET2 assays.

[2] = system: 6-hydroxydopamine (6OHDA) lesions of the substantia nigra pars compacta (SNc); assay: 6OHDA lesion of the SNc, bexarotene once daily orally after lesion; format: in vivo, rats
Procedure: . The endpoints assessed were: • Neuroprotection measured by tyrosine hydroxylase (TH) staining in the substantia nigra (SNc). • Behavioral assessments including rotorod, challenging beam, and spontaneous locomotion
. Following the 28 days of treatment, animals were assessed in 3 tests of coordinated motor function (spontaneous locomotion, rotorod and challenging beam) and then tissue was collected to assess tyrosine hydroxylase immunofluorescence in the substantia nigra. […].
The subjects and surgical procedures to produce lesions were as described above for i.c.v. dosing.
Spontaneous Locomotion, rotorod, and challenging beam tests were conducted as described above for i.c.v. dosing.
Novel object recognition (NOR) was conducted in a novel environment in two phases: sample and test. Subjects were placed into the NOR chamber, where two identical objects were placed. Each rat was allowed to explore for 3 min., and the time spent exploring at each position recorded. After 3 min., each rat was removed from the arena and placed back into its cage. The test phase was conducted 4 hours after the sample phase. During test, one familiar object (seen during sample) and one novel object was placed into the chamber, and each rat was allowed 3 min to explore. The test sessions were recorded on video and scored by an observer blind to each subject's treatment condition. For test data, % of exploration time spent at the novel object was determined and headtwitch assays.
Spontaneous Head Twitch: Subjects were place in a group of 4 animals into a clean holding tub, where they were closely observed for 8 min.
Tyrosine Hydroxylase Fluorescent Immunohistochemisty was conducted as described above for i.c.v. dosing.

[3] = Serum triglyceride and T4 levels (side effects); format: in vivo, rats
Description: At the end of the indicated dosing periods, blood was harvested, and the serum analyzed for triglyceride (FIG. 17A) and T4 levels (FIG. 17B) by IDEXX Corporation.

[4] = system: 6-hydroxydopamine (6OHDA) lesions of the substantia nigra pars compacta (SNc); assay: 6OHDA lesion of the SNc, bexarotene i.c.v. after lesion; format: in vivo, Sprague-Dawley rats; settings: for Effective in rat PD model?: i.c.v. 0.006 mg/kg/day (text: 0.00625), 6OHDA lesioning of the substantia nigra
Procedure: Following the 28 days of treatment, animals were assessed in 3 tests of coordinated motor function (spontaneous locomotion, rotorod and challenging beam) and then tissue was collected to assess tyrosine hydroxylase immunofluorescence in the substantia nigra (SNc) and DAT and VMAT2 in the striatum (STR). […] The subjects for these experiments were male Sprague-Dawley rats purchased from Charles Rivers Laboratories (Hollister, Calif.) weighing 200-225 g upon arrival. Rats were housed in pairs in polypropylene cages within a temperature controlled vivarium maintained on a 12 hr light:dark cycle (lights on 7 am). For the duration of the experiments, animals received free access to food and water. All procedures were conducted in accordance with the NIH Guidelines for the Care and Use of Laboratory Animals and were approved by the Institutional Animal Care and Use Committee (IACUC) at […] Pharmaceuticals. Animals were acclimated to vivarium conditions and handling for a minimum of one week prior to surgery. […] After 6OHDA infusions, an Alzet osmotic pump (Durect Corporation, Cupertino, Calif.) attached to an intracranial guide cannula was implanted subcutaneously between the shoulder blades of each animal. The guide was placed intracerebroventricularly (i.c.v., A/P -0.8 mm, M/L -1.4 mm, D/V -4.5 mm relative to bregma) and was attached to the skull with jeweler's screws and dental acrylic and the incision was closed with staples. […] They were then incubated in 0.9% physiological saline at 37° C. until surgically implanted. The pumps infused at a rate of 0.25 μL/hr for 28 days after implantation. […] After completion of the experiment, a subset of the osmotic pumps was removed. The pumps were weighed and aspirated in order to verify compound delivery. […] (Columbus, Ohio). Animals were placed into the chamber for 15 min and their distance traveled (cm) was recorded. Rotorod testing was conducted on a rotating cylinder (70 mm diameter) with knurled tread to aid in gripping. Animals were placed on the cylinder and it was set to rotate at 1 rpm for 15 sec. If animals fell or jumped from the cylinder within 30 sec., they were replaced and the acclimation period restarted. Once animals successfully remained on the cylinder for the acclimation period, the speed of rotation was increased 1 rpm every 15 sec to a maximum of 10 rpm. The time in seconds that animals remained on the cylinder after the acclimation period and the maximum rpm achieved were recorded. […] The challenging beam test was conducted on a 102 cm long bi-level beam made from ABS plastic. The top, narrower beam gradually tapered from 3.5 cm to 0.7 cm, while the bottom, wider beam gradually tapered from 5 cm to 1.8 cm along the length of the beam. The beam was elevated 23 cm above the table. Animals were placed in groups of 4 into a holding tub and received five training trials. On the first training trial animals were placed at the end of the beam and were required to jump into a holding tub. On successive trials, animals were placed 25, 50, 75 and 100 cm from the end of the beam and were required to traverse the beam and jump into the holding tub at the end. Following training, a single test trial was conducted where each animal was placed at the beginning of the beam and the start latency (time required to move all four feet from their starting locations) and run time (time required to traverse the beam after starting) were recorded. […] Similarly, fixed brains were sectioned (50 μm) through the striatum and labeled for the dopamine transporter. […] After immuno labeling sections were mounted and coverslipped using fluorescent antifade mounting medium ([…], Dako USA, Carpinteria, Calif.). Single optical plane images were obtained using an Olympus BX51 Fluorescent microscope (Olympus America Inc., Center Valley, Pa.) equipped with a digital camera (Retina 2000R, Qimaging, Surrey, BC). Images were acquired using a 4× air objective ([…]. 0.13) with 2× digital magnification. […]

[5] = system: NGFI-B response element, NBRE; assay: Reporter gene transcription assay pNBRE; format: cell-based
Description: as §1

[6] = i.c.v., s.c. and 1 mg/kg/day p.o.

SMILES: C=C(c1ccc(C(=O)O)cc1)c1cc2c(cc1C)C(C)(C)CCC2(C)C [Bexarotene, bexarotene]
- pEC50 [1]: 7.39
- Eff % ([1]; pRXRE & Nurr1, normalized to 9-cis retinoic acid): 65%
- Parkinson's (human) AUC, column G (oral, human AUCcancer × rat AUCPD ÷ rat AUCcancer at 30 mg/kg): 1.27 µM·h
- Parkinson's (human) AUC, column G (oral, rat cancer AUC at 60 mg/kg): 0.93 µM·h
- Parkinson's (human) AUC, column G (oral, rat cancer AUC at 100 mg/kg): 0.73 µM·h
- Parkinson's (human) AUC, column G (s.c. infusion, rat cancer AUC at 30 mg/kg): 0.38 µM·h
- Parkinson's (human) AUC, column G (s.c. infusion, rat cancer AUC at 60 mg/kg): 0.28 µM·h
- Parkinson's (human) AUC, column G (s.c. infusion, rat cancer AUC at 100 mg/kg): 0.22 µM·h
- improvement of TH measures in the SNc ([2]; 0.3 mg/kg/day orally for 28 days beginning 3 days after lesion): not
- normalization of behavior disrupted by lesion ([2]; 0.3 mg/kg/day orally for 28 days beginning 3 days post-lesion): not
- TH positive cells, mean pixel intensity, % immunopositive, colocalization of TH and Neurotrace in the SNc ([2]; 1 or 3 mg/kg/day orally for 28 days beginning 3 days after lesion, vs vehicle): significantly improved; also recorded: improved tyrosine hydroxylase expression
- behavior disrupted by lesion (challenging beam, rotorod, novel object recognition, head twitches) ([2]; 1 or 3 mg/kg/day orally for 28 days beginning 3 days post-lesion): normalized behavior disrupted by lesion; also recorded: reversed behavioral deficits
- Effective PD dose (rat), p.o. ([2]; once daily p.o., 6OHDA lesion model, listed as Targretin): 1 mg/kg/day
- Effective in rat PD model? ([2]; p.o. 1 mg/kg/day, 6OHDA lesioning of the substantia nigra, 1 mg/kg/day): effectively reversed behavioral deficits and regenerated neurons and Yes
- serum triglyceride levels vs vehicle ([3]; 1 mg/kg/day P.O., 5 days): significantly increased compared to vehicle
- serum triglyceride levels vs vehicle ([3]; i.c.v. continuous infusion 0.006 mg/kg/day, up to 8 days): not significantly different to vehicle treated animals
- T4 levels compared with 100 mg/kg/day p.o. [3, 6]: significantly higher
- serum triglyceride levels compared with 100 mg/kg/day p.o. [3, 6]: significantly lower
- serum triglyceride levels vs vehicle ([3]; s.c. continuous infusion 0.25 mg/kg/day, up to 8 days): not significantly different to vehicle treated animals
- DAT and VMAT2 immunohistochemistry in the striatum ([4]; 0.006 mg/kg/day i.c.v. beginning 72 hours after 6OHDA lesion): significantly increased all measures; also recorded: improved dopamine transporter and VMAT2 expression
- tyrosine hydroxylase immunofluorescence in the SNc ([4]; 0.006 mg/kg/day i.c.v. beginning 72 hours after 6OHDA lesion, vs vehicle): significantly improved cell counts, cell size and mean pixel intensity; also recorded: improved tyrosine hydroxylase expression
- motor performance (challenging beam, rotorod, spontaneous locomotion) after 6OHDA ([4]; 0.006 mg/kg/day i.c.v. for 28 days beginning 72 hours after lesion): not impaired relative to Sham controls; also recorded: reversed behavioral deficits
- Effective in rat PD model? [4]: effective in reversing the neuronal and behavioral deficits
- Effective in rat PD model? ([4]; listed as bexarotene): Yes
- Effective PD dose (rat), i.c.v. ([4]; i.c.v. continuous infusion, 6OHDA lesion model): 0.00625 mg/kg/day
- pEC50 [5]: 7.70
- Eff % ([5]; pNBRE, normalized to the response of 9-cis retinoic acid): 28%
